Values after ≈ are worked out from the molar mass of the structure shown.
Experiments:
Assay type in all cases: functional
Neisseria meningitidis [1] = experiment: Antimicrobial activity against fluoroquinolone-susceptible Neisseria meningitidis by disk diffusion method; settings: for MIC: Neisseria meningitidis
Neisseria meningitidis [2] = experiment: Antimicrobial activity against fluoroquinolone-resistant Neisseria meningitidis expressing gyrA mutant by disk diffusion method
Neisseria meningitidis [3] = experiment: Antimicrobial activity against fluoroquinolone-intermediate Neisseria meningitidis by disk diffusion method
Neisseria meningitidis [4] = experiment: Antimicrobial activity against fluoroquinolone-resistant Neisseria meningitidis expressing gyrA mutant at 30 ug by disk diffusion method; settings: read-out: IZ
Neisseria meningitidis [5] = experiment: Antimicrobial activity against fluoroquinolone-susceptible Neisseria meningitidis at 30 ug by disk diffusion method; settings: read-out: IZ

For O=C(O)c1cn(C2CC2)c2cc(N3CCNCC3)c(F)cc2c1=O [CIPROFLOXACIN], the “inhibition zone (IZ)” value (Neisseria meningitidis [1]) was 34 mm, the MIC (Neisseria meningitidis [1]) was no more than 0.03 µg/mL and the “inhibition zone (IZ)” value (Neisseria meningitidis [2]) was 29 mm. For the same compound, the MIC (Neisseria meningitidis [2]; Neisseria meningitidis) was no less than 0.12 µg/mL, the “inhibition zone (IZ)” value (Neisseria meningitidis [3]) was 35 mm and the MIC (Neisseria meningitidis [3]; Neisseria meningitidis) was 0.06 µg/mL (≈ 0.181 µM).

Work on CCn1cc(C(=O)O)c(=O)c2ccc(C)nc21 [NALIDIXIC ACID] yielded a zone of inhibition at 30 µg/disc (Neisseria meningitidis [4]) of less than 15 mm, an MIC (Neisseria meningitidis [1]) of 0.25 µg/mL (≈ 1.08 µM) and a zone of inhibition at 30 µg/disc (Neisseria meningitidis [5]) of 28 mm.
